Experimental data as given in ChEMBL document CHEMBL1131889, “Synthesis and acetylcholinesterase inhibitory activity of huperzine A-E2020 combined compound” (Bioorg Med Chem Lett, 1999).

biological target: T1, Acetylcholinesterase (Rattus norvegicus, UniProt P37136); test: Inhibitory activity against Acetylcholinesterase (AChE) in rat brain hippocampal crude homogenate; assay type: tissue-based, Hippocampus
T1 sequence (P37136 whole entry): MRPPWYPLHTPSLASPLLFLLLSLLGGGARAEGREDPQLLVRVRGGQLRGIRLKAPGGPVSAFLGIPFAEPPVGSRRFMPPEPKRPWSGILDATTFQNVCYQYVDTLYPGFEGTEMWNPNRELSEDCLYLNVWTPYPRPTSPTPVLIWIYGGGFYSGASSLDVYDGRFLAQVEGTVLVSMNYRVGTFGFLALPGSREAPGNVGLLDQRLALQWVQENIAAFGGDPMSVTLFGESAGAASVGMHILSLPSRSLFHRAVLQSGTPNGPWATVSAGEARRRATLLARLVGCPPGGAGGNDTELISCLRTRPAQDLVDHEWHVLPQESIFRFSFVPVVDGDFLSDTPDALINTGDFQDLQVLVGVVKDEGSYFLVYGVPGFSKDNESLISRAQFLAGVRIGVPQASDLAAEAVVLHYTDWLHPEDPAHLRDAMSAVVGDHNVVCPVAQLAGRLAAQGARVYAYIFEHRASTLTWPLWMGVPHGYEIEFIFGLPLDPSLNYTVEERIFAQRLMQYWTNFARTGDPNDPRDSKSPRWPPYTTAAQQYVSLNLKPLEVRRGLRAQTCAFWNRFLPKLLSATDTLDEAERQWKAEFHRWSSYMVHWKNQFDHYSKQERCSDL

Question: For `CC1(NCC2CCN(Cc3ccccc3)CC2)c2ccc(O)nc2CCC1O` (stereo not drawn), which IC50 is on record?
Answer: > 190 µM

Question: `COc1ccc2c(n1)CCC(OC)C2(C)NC(=O)C1CCN(Cc2ccccc2)CC1` (stereo not drawn) was tested. Which IC50 did it give?
Answer: 17.2 µM

Question: Which IC50 does the source give for `COc1ccc2c(n1)CCC(OC)C2(C)NCC1CCN(Cc2ccccc2)CC1` (stereo not drawn) here?
Answer: > 177 µM
